Experimental data published in US20080167358A1, “Methods for Obtaining a Fast Dissolving Imidapril Powder” (priority 2005, published 2008).

Experiment: Dissolution time of a quantity corresponding to 75 mg of Imidapril in 30 ml of water at room temperature
Type: physicochemical
Details: quantity of formulation corresponding to 75 mg of Imidapril added to 30 ml of stirred water at room temperature
Protocol: This crystalline condition makes it possible to obtain a quick dissolution Imidapril powder, i.e., having a total dissolution time of the powder of 30 sec for a quantity of 75 mg of Imidapril in 30 ml of water at room temperature (25° C.). […] The apparent dissolution time is noted.

## CCOC(=O)[C@H](CCc1ccccc1)N[C@@H](C)C(=O)N1C(=O)N(C)C[C@H]1C(=O)O [Standard Imidapril, Imidapril]
  Time (s) (apparent dissolution time): 420 s
